According to article PMC9414972, “α-Glucosidase and α-Amylase Inhibitory Potentials of Quinoline–1,3,4-oxadiazole Conjugates Bearing 1,2,3-Triazole with Antioxidant Activity, Kinetic Studies, and Computational Validation” (Pharmaceuticals, 2022):

What was measured:
[1] = DPPH radical scavenging activity; details: DPPH radical scavenging, 30 min, 25 °C
Method: The DPPH assay is used conventionally to quantify a compound’s ability to trap free radicals.
The compounds were evaluated for their ability to scavenge stable DPPH radicals, using a modification of the method by Turkoglu et al..

[2] = Ferric reducing antioxidant power (FRAP); details: ferric reducing antioxidant power
Method: FRAP is a ferric (Fe^3+) to ferrous (Fe^2+) ions reduction assay that measures a compound’s electron-donating capacity, i.e., the antioxidant’s reducing power.
The mixture was incubated at 50 °C for 20 min, followed by acidification with 100 μL trichloroacetic acid (10%). After centrifugation at 3500 rpm for 10 min, 200 μL of the supernatant was transferred into another test tube containing 200 μL of distilled water and 0.8 mL of FeCl3 (0.1%). Finally, the absorbance was read at 700 nm, and the total reductive antioxidant power was calculated thus: Ferric reducing antioxidant power (%)=Absorbance of compound/Absorbance of 500µM gallic acid×100

[3] = Nitric oxide (NO) scavenging activity; details: nitric oxide radical scavenging, 37 °C, 2 h
Method: The screening of the present compound series for NO radical scavenging activity (Table 2) identified excellent NO scavengers.
The antioxidant capacity of the compounds to scavenge nitric oxide radicals was determined using a modified version of the protocol by Kurian et al.. Briefly, 250 μL of sodium nitroprusside (10 mM) prepared in sodium phosphate buffer (pH 7.4) was added to 500 μL of the compound solution (62.5–500 μM) or distilled water (control). The resulting solution was incubated at 37 °C for 2 h. Then, 250 μL of Griess reagent was added to the reaction mixture before the absorbance was measured at 546 nm. The nitric oxide scavenging activity of the compounds was calculated with the formula: Nitric oxide scavenging (%)=1−Absorbance of compound/Absorbance of control×100

α-glucosidase [4] = biological target: T1, α-glucosidase (Saccharomyces cerevisiae, UniProt P38158); assay: biochemical; details: pNPG substrate, pH 6.8, 37 °C; read-out: IC50 α-Glucosidase
T1 construct: purchased Merck
Method: The α-glucosidase inhibitory activity was evaluated using a previous method with slight modifications.

[5] = biological target: T2, porcine pancreatic amylase (Sus scrofa, UniProt P00690); assay: α-Amylase inhibitory activity (starch/DNS); assay type: biochemical; details: porcine pancreatic amylase, starch, pH 6.9, 25 °C; read-out: IC50 α-Amylase
T2 construct: purchased Merck
T2 sequence (P00690 16-511): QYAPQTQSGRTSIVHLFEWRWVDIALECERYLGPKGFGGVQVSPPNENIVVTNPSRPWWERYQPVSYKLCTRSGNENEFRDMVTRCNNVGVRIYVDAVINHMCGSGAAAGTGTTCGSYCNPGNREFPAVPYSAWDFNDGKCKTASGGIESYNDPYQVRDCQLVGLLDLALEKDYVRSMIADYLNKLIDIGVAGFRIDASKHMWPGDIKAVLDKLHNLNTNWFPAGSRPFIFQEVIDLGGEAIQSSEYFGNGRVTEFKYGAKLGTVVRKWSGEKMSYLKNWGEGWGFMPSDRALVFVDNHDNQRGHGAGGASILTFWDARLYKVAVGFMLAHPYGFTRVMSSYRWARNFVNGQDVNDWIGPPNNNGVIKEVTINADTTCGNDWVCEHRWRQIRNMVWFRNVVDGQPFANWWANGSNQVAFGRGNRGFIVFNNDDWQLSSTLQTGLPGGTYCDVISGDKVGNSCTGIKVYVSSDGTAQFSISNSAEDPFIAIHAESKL
Method: α-Amylase inhibitory activity was determined according to Ibitoye et al. with slight modifications. […] The reaction in the mixture was terminated with a 1 mL dinitrosalicylate reagent before boiling for 10 min. The cooled mixture was diluted with 5 mL distilled water, and the absorbance was read at 540 nm. The inhibitory activity was calculated using the formula below: % Inhibition=1−Absorbance of compound/Absorbance of control×100

α-glucosidase [6] = biological target: T1, α-glucosidase; assay: Mode of α-glucosidase inhibition (enzyme kinetics, Lineweaver–Burk); assay type: biochemical; details: Lineweaver–Burk plots; inhibitor 0, 75, 150, 300 µM; pNPG
Description: Understanding a drug’s mode of inhibiting its target is crucial to improve the drug’s activity profile and target specificity. Although orthosteric inhibition, in which the ligand binds at the target’s active site, dominates among currently available drugs, allosteric inhibitors (i.e., drugs binding at regions […] the active site) are desirable due to their reduced vulnerability to active site mutation or to displacement through native substrate overload at the active site. Accordingly, the mode of α-glucosidase inhibition was investigated for promising compounds 4b, 4i, 4j, 4k, 4l, 12k, and 12m, using a time-dependent para-nitrophenyl-[…] (pNPG) assay; the results are presented as Lineweaver–Burk plots (Figure 4). […] Conceivably, this can result in decreased systemic glucose concentration thus alleviating postprandial hyperglycemia and its associated complications.
The mode of inhibition of α-glucosidase of the 4b, 4i, 4j, 4k, 4l, 12k, and 12m compounds was determined using the method described by Kazeem et al. 2013, with modifications. Briefly, 50 µL of the 4b, 4i, 4j, 4k, 4l, 12k, and 12m compounds at (0 µM, 75 µM, 150 µM and 300 µM) concentrations were preincubated with 100 µL of α-glucosidase solution for 10 min at 25 °C in one set of tubes. In another set of tubes, α-glucosidase was preincubated with 50 µL of phosphate buffer (pH 6.9). 25 µL of pNPG at increasing concentrations (0.125–4.0 mg/mL) was added to both sets of solution to start the reaction. Immediately, the absorbance of the resulting solution was monitored for 2 min in a spectrophotometer at 405 nm. The amount of 4-nitrophenol released was determined from a 4-nitrophenol standard curve and then converted to reaction velocities.

T1 sequence (P38158 whole entry): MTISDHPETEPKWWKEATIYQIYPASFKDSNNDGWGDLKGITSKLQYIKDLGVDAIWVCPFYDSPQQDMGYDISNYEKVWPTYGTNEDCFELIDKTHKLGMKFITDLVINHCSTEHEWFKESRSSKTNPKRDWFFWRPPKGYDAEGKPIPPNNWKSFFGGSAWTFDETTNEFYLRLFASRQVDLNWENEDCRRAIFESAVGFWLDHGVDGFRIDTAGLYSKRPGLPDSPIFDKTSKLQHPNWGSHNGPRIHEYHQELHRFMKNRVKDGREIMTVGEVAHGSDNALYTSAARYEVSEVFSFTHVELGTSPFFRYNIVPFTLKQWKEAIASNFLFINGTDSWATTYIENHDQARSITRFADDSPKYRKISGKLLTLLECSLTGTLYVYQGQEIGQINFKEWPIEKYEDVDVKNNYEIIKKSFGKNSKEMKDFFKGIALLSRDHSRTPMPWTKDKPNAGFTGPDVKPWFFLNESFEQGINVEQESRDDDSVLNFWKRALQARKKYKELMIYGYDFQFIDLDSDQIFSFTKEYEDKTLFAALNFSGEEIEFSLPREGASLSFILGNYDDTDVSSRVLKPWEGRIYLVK

Row | SMILES | IC50 [1] [µM] | IC50 [2] [µM] | IC50 [3] [µM] | IC50 (α-glucosidase [4]) [µM] | IC50 [5] [µM] | mode of α-glucosidase inhibition (α-glucosidase [6]) | melting point [°C]
1 | CCCSc1nnc(COc2cccc3cccnc23)o1 [4b, 2-(Propylthio)-5-[(quinolin-8-yloxy)methyl]-1,3,4-oxadiazole] | 78.2 | > 500 | > 500 | 24.9 | > 500 | non-competitive | 
2 | BrCCCCCSc1nnc(COc2cccc3cccnc23)o1 [4i, 2-[(5-Bromopentyl)thio]-5-[(quinolin-8-yloxy)methyl]-1,3,4-oxadiazole] | 54.9 | 22.9 | 198 | 15.8 | > 500 | non-competitive | 
3 | c1ccc(CSc2nnc(COc3cccc4cccnc34)o2)cc1 [4j, 2-(Benzylthio)-5-[(quinolin-8-yloxy)methyl]-1,3,4-oxadiazole] | 54.9 | > 500 | 399 | 26.7 | > 500 | non-competitive | 75.3 to 79.8
4 | Fc1ccc(CSc2nnc(COc3cccc4cccnc34)o2)cc1 [4k, 2-[(4-Fluorobenzyl)thio]-5-[(quinolin-8-yloxy)methyl]-1,3,4-oxadiazole] | 81.1 | > 500 | > 500 | 23.7 | > 500 | non-competitive | 106.9 to 109.4
5 | Brc1ccc(Cn2cc(CSc3nnc(COc4cccc5cccnc45)o3)nn2)cc1 [12f, 2-{[(1-(4-Bromobenzyl)-1H-1,2,3-triazol-4-yl)methyl]thio}-5-[(quinolin-8-yloxy)methyl]-1,3,4-oxadiazole] | 91.8 | > 500 | 482 | 56.4 | > 500 |  | 78 to 82
6 | O=[N+]([O-])c1ccc(Cn2cc(CSc3nnc(COc4cccc5cccnc45)o3)nn2)cc1 [12g, 2-{[(1-(4-Nitrobenzyl)-1H-1,2,3-triazol-4-yl)methyl]thio}-5-[(quinolin-8-yloxy)methyl]-1,3,4-oxadiazole] | 81.9 | > 500 | 3.01 | 46.5 | > 500 |  | 100 to 106
7 | Clc1cccc(Cn2cc(CSc3nnc(COc4cccc5cccnc45)o3)nn2)c1 [12h, 2-{[(1-(3-Chlorobenzyl)-1H-1,2,3-triazol-4-yl)methyl]thio}-5-[(quinolin-8-yloxy)methyl]-1,3,4-oxadiazole] | 90.7 | > 500 | > 500 | 63.6 | > 500 |  | 78 to 84
8 | Clc1ccc(Cn2cc(CSc3nnc(COc4cccc5cccnc45)o3)nn2)c(Cl)c1 [12i, 2-{[(1-(2,4-Dichlorobenzyl)-1H-1,2,3-triazol-4-yl)methyl]thio}-5-[(quinolin-8-yloxy)methyl]-1,3,4-oxadiazole] | 95.4 | > 500 | > 500 | 42.8 | > 500 |  | 124 to 130
9 | Clc1ccc(-n2cc(CSc3nnc(COc4cccc5cccnc45)o3)nn2)cc1 [12l, 2-{[(1-(4-Chlorophenyl)-1H-1,2,3-triazol-4-yl)methyl]thio}-5-[(quinolin-8-yloxy)methyl]-1,3,4-oxadiazole] | 81.7 | > 500 | > 500 | 38 | > 500 |  | 132 to 136
10 | Brc1ccc(-n2cc(CSc3nnc(COc4cccc5cccnc45)o3)nn2)cc1 [12n, 2-{[(1-(4-Bromophenyl)-1H-1,2,3-triazol-4-yl)methyl]thio}-5-[(quinolin-8-yloxy)methyl]-1,3,4-oxadiazole] | 92.2 | > 500 | > 500 | 35.2 | > 500 |  | 126 to 132
11 | O=[N+]([O-])c1ccc(-n2cc(CSc3nnc(COc4cccc5cccnc45)o3)nn2)cc1 [12o, 2-{[(1-(4-Nitrophenyl)-1H-1,2,3-triazol-4-yl)methyl]thio}-5-[(quinolin-8-yloxy)methyl]-1,3,4-oxadiazole] | 88.9 | > 500 | > 500 | 38.3 | > 500 |  | 150 to 156
12 | Cc1ccc(-n2cc(CSc3nnc(COc4cccc5cccnc45)o3)nn2)cc1 [12p, 2-[(Quinolin-8-yloxy)methyl]-5-{[(1-(p-tolyl)-1h-1,2,3-triazol-4-yl)methyl]thio}-1,3,4-oxadiazole] | 96 | > 500 | > 500 | 44.1 | 495 |  | 78 to 80
13 | COc1ccc(-n2cc(CSc3nnc(COc4cccc5cccnc45)o3)nn2)cc1 [12q, 2-{[(1-(4-Methoxyphenyl)-1H-1,2,3-triazol-4-yl)methyl]thio}-5-[(quinolin-8-yloxy)methyl]-1,3,4-oxadiazole] | 98.5 | > 500 | > 500 | 62.1 | > 500 |  | 122 to 128
14 | Clc1ccc(-n2cc(CSc3nnc(COc4cccc5cccnc45)o3)nn2)c(Cl)c1 [12r, 2-{[(1-(2,4-Dichlorophenyl)-1H-1,2,3-triazol-4-yl)methyl]thio}-5-[(quinolin-8-yloxy)methyl]-1,3,4-oxadiazole] | 101 | > 500 | > 500 | 48.5 | > 500 |  | 112 to 116
15 | Clc1cccc(Cl)c1-n1cc(CSc2nnc(COc3cccc4cccnc34)o2)nn1 [12s, 2-{[(1-(2,6-Dichlorophenyl)-1H-1,2,3-triazol-4-yl)methyl]thio}-5-[(quinolin-8-yloxy)methyl]-1,3,4-oxadiazole] | 84.5 | > 500 | > 500 | 38.8 | > 500 |  | 113 to 118
16 | Cc1cccc(C)c1-n1cc(CSc2nnc(COc3cccc4cccnc34)o2)nn1 [12t, 2-{[(1-(2,6-Dimethylphenyl)-1H-1,2,3-triazol-4-yl)methyl]thio}-5-[(quinolin-8-yloxy)methyl]-1,3,4-oxadiazole] | 90 | > 500 | > 500 | 44.1 | > 500 |  | 110 to 116
